Measurements: publication PMC11274654 (Biomedicines, 2024)
pEC50: −log10 of the molar value.

Assays:
[1] = tested on: Rat Calvarial Osteoblasts (RCOs); test: ALP assay (osteoblast differentiation) in rat calvarial osteoblasts; format: cell-based
Procedure: Sequential digestion was performed to isolate calvarial osteoblast cells from neonatal rat pups. Briefly, calvariae were harvested from ten to twelve 1–2-day old rat pups, cleaned, and subjected to five sequential enzymatic digestions (0.1% dispase and 0.1% collagenase I) of 10–15 min each, followed by culturing of the harvested cells in α-MEM supplemented with 10% FBS [22].
RCOs were seeded in 24-well plates (1 × 10^4 cells/well), and the cells were treated for 48 h in osteoblast differentiation media (α-MEM supplemented with 10 mM β-glycerophosphate and 50 μg/mL ascorbic acid) with the imidazole group of chemicals (10^−11 M–10^−6 M).
A total of 2 mg/mL of para-Nitrophenyl phosphate in diethanolamine buffer was used to measure the ALP activity at a 405 nm wavelength.

[2] = tested on: mouse BMSCs (mBMSCs); test: ALP activity in mouse bone marrow stromal cells; format: cell-based; conditions: 1 nM, seven days post-treatment
[3] = tested on: Wnt/β-catenin signaling (TOP-Flash reporter, HEK293T cells); test: Wnt/β-catenin TOP-Flash reporter assay; format: cell-based; conditions: 24 h
Procedure: The effect of MTZ on β-catenin signaling was assayed using a TOP-Flash reporter plasmid that contained a minimal TA viral promoter coupled to β-catenin-responsive TCF/LEF-binding sites upstream of a firefly luciferase gene (a kind gift from Prof. Yosef Yarden, WIS, Israel). Briefly, HEK293T cells were transfected with 0.5 μg of the TOP-Flash plasmid. Additionally, the GFP-encoding plasmid, pEGFP, was transfected as a control for transfection efficiency. […] In white opaque plates, the lysate and 100 μL of luciferase assay buffer (10 mM KH2PO4, 2 mM ATP, 1 mM D-luciferin, NaCl, and MgCl2) were added, and luminescence was measured. Luminescence values were normalized by EGFP plasmid fluorescence value, and the fold-change was calculated relative to the control.

[4] = In vitro MTZ release in PBS and release kinetics models; format: physicochemical; set-up: Hixson–Crowell kHC / Zero-order K0 / First-order K1 / Higuchi kH: unit not given here; conditions: in PBS
Procedure: To evaluate the release kinetics profile of MTZ, a formulation containing 10 mg equivalent of MTZ was injected into 200 mL of the PBS medium (37 ± 0.5 °C) using a 20-gauge needle. The formulation immediately turned into a gel upon contact with the dissolution medium. The dissolution vials were placed on a reciprocating bath-shaker and left for continuous shaking throughout the dissolution study. A total of 2 mL of aliquots were withdrawn and replaced with an equal volume of fresh PBS to maintain the sink condition. The dissolution study was conducted for a duration of 24 h. The samples were filtered through a syringe filter (0.22 μm). The MTZ concentrations were analyzed spectrophotometrically (294 nm) after appropriate dilution, with PBS as a blank for background correction. The measured concentrations were presented as the mean ± standard deviation (SD).
To understand the drug release kinetics, data obtained from the release study were fitted into various kinetics models: zero-order, first-order, Higuchi, Korsmeyer–Peppas, and Hixson–Crowell. The DD solver Excel add-in program was utilized to compare and identify the mechanism of drug release.

[5] = tested on: bone regeneration at the femur osteotomy site; test: Femur osteotomy model, oral MTZ; format: in vivo, Sprague Dawley rats; conditions: 117 mg/kg and 235 mg/kg oral daily, 12 days
Procedure: Femur osteotomy was carried out in adult female Sprague Dawley (SD) rats (200 ± 20 g, 3 months old) and 3-month post-ovariectomized osteopenic SD rats (280 ± 20 g, 6 months old) by inserting a drill bit with a diameter of 0.8 mm from the anterior to the posterior mid-diaphysis of the right femur.
The human equivalent dose for rats is 235 mg/kg; half of this amount, 117 mg/kg, was used for the study. Doses of MTZ (117 mg/kg and 235 mg/kg) were administered daily by the oral route for 12 days. For the formulation study, MTZ@In situ gel and unformulated MTZ were administered every 3 days (total of 4 injections) for a period of 12 days via the subcutaneous route in the osteotomy animal. Each rat received 20 mg/kg, s.c. of bone-seeking fluorochrome calcein 24 h before sacrifice in order to evaluate the new bone formation at the fractured callus.
A SkyScan 1076 μCT scanner (SkyScan, Ltd., Kartuizersweg, Kontich, Belgium) was used to perform a high-resolution μCT for the two-dimensional and three-dimensional assessment of excised bones. The rat bone scanning process used an isotropic voxel pixel size of 18 μm and an X-ray source of 70 kV and […]. Utilizing the SkyScan Nrecon software (Version: 1.7.0.4), cross-sectional reconstruction was performed. […] The Batman software (Version: 1.16.8.0+), with trabecular (3D) bone analysis programs was used for quantification.

**Q.** For `Cc1ncc([N+](=O)[O-])n1CCO` [Metronidazole], which “Activity in ALP Assay (Positive/Negative)” value ([1]; 48 h) is on record?
**A.** Positive

**Q.** And the “Effect on ALP activity compared to the control (vehicle)” value ([1]; 48 h)?
**A.** significantly increased

**Q.** What about the pEC50 ([1]; Rattus norvegicus, Calvarial osteoblast, 48 h in osteoblast differentiation media) of the same molecule?
**A.** 8.92

**Q.** What about the “ALP activity compared to the vehicle group” value [2] of the same molecule?
**A.** increased

**Q.** What about the TOP-Flash reporter activity [3] of the same molecule?
**A.** increased

**Q.** And the “First-order K1” value [4]?
**A.** 0.08 ± 0.00

**Q.** And the “First-order R^2” value [4]?
**A.** 0.84 ± 0.00

**Q.** And the “Higuchi R^2” value [4]?
**A.** 0.71 ± 0.00

**Q.** And the “Higuchi kH” value [4]?
**A.** 16.34 ± 0.12

**Q.** What about the “Hixson–Crowell R^2” value [4] of the same molecule?
**A.** 0.86 ± 0.01

**Q.** What about the “Hixson–Crowell kHC” value [4] of the same molecule?
**A.** 0.02 ± 0.00

**Q.** What about the “Korsmeyer–Peppas R^2” value [4] of the same molecule?
**A.** 0.81 ± 0.01

**Q.** What about the “Korsmeyer–Peppas kKP” value [4] of the same molecule?
**A.** 8.64 ± 0.11

**Q.** And the “Korsmeyer–Peppas n (release exponent)” value [4]?
**A.** 0.78 ± 0.01

**Q.** What about the “Zero-order K0” value [4] of the same molecule?
**A.** 4.77 ± 0.05

**Q.** What about the “Zero-order R^2” value [4] of the same molecule?
**A.** 0.76 ± 0.01

**Q.** And the “Bone volume at the osteotomy site” value [5]?
**A.** increased

**Q.** What about the “Calcein intensity at the osteotomy site” value [5] of the same molecule?
**A.** increased
